Data published in article PMC9358002, “Synthesis and Discovery of Ligustrazine–Heterocycle Derivatives as Antitumor Agents” (Frontiers in Chemistry, 2022).

Legend:
[1] = test system: human breast cancer MCF-7; test: MTT antiproliferative assay, MCF-7; type: cell-based; conditions: Homo sapiens, MCF7, 48 h, 0–50 μM, read-out: Antiproliferative activity IC50 ± SEM, MCF-7
Protocol: (§1) The in vitro antiproliferative activity of 33 TMPH compounds was evaluated by MTT assay ([Medica et al., 2022]). Five types of TNBC-related cell lines (human breast cancer MCF-7 and MDA-MB-231, mouse breast cancer 4T1, mouse fibroblast L929, and human umbilical vein endothelial HUVEC cell lines) were used. The cell lines were obtained from the Shanghai Institute of Biochemistry and Cell Biology of the Chinese Academy of Sciences (Shanghai, China). The cell lines were cultured in DMEM supplemented with 1% penicillin–streptomycin solution (100×) and 10% FBS at 37°C under a humid atmosphere containing 5% CO2. After cell passage, cryopreservation, and resuscitation, the growth-inhibitory effects against the five cell lines were determined by MTT assay. The 33 TMPH compounds and the reference control drug cisplatin were dissolved in 0.1% DMSO solution. The cell lines were maintained in 96-well plates and subjected to each test compound (0–50 μM) at 37°C for 48 h. After treatment with 1 mg/ml MTT solution for 4 h, the formazan crystals were dissolved in each well. A microplate reader (Varioskan Flash 3001, Thermo Scientific) was used to determine the cell viability at 490 nm, and each experiment was repeated four times. The collected data were expressed as the mean ± SEM. The inhibitory concentration of the 34 compounds at 50% (IC50) was calculated via concentration–inhibition relationship regression by SPSS software.

[2] = test system: human breast cancer MDA-MB-231; test: MTT antiproliferative assay, MDA-MB-231; type: cell-based; conditions: for IC50: Homo sapiens, MDA-MB-231, MTT, 48 h, 0–50 μM, read-out: Antiproliferative activity IC50 ± SEM, MDA-MB-231; for SI, selectivity index: SI = IC50 (L929)/IC50 (MDA-MB-231)
Protocol: as §1

mouse breast cancer 4T1 = test: MTT antiproliferative assay, 4T1; type: cell-based; conditions: Mus musculus, 48 h, 0–50 μM, read-out: Antiproliferative activity IC50 ± SEM, 4T1
Protocol: as §1

mouse fibroblast L929 = test: MTT antiproliferative assay, L929; type: cell-based; conditions: Mus musculus, L929, 48 h, 0–50 μM, read-out: Antiproliferative activity IC50 ± SEM, L929
Protocol: as §1

[3] = test system: human umbilical vein endothelial HUVEC; test: MTT antiproliferative assay, HUVEC; type: cell-based; conditions: Homo sapiens, HUVEC, 48 h, 0–50 μM, read-out: Antiproliferative activity IC50 ± SEM, HUVEC
Protocol: as §1

[4] = test system: MCF-7, MDA-MB-231, 4T1, L929 and HUVEC cell lines; test: MTT antiproliferative assay, statements over all five tested cell lines; type: cell-based; conditions: range over all five tested cell lines, read-out: IC50 values ranging over the tested cell lines
Protocol: as §1

MDA-MB-231 cells [5] = test: Clonal formation assay of MDA-MB-231 cells; type: cell-based, human; conditions: 0.5, 1.0 and 2.0 μM for 10 days
Protocol: Human breast cancer MDA-MB-231 cells were cultured in a six-well plate with 1,500 cells per well and incubated for 24 h at 37°C under a humid atmosphere containing 5% CO2. Then, the MDA-MB-231 cells were incubated with compound 12–9 at final concentrations of 0, 0.5, 1.0, and 2.0 μM for 10 days. The treated cells were washed with PBS and fixed with 4% paraformaldehyde for 15 min at room temperature. Then, the end product of the cell colonies was visualized by staining with 0.1% crystal violet for 10 min. The images were photographed using a handy camera, and the number of cell colonies was assessed using open Image J software (National Institutes of Health). Each experiment was repeated three times. A group of >50 cells was defined as one colony formation.

MDA-MB-231 cells [6] = test: Hoechst 33 342 staining of MDA-MB-231 cells; type: cell-based, human; conditions: 1.0 μM, 48 h
Protocol: The induction of apoptosis by compound 12–9 was visually evaluated in MDA-MB-231 cells by Hoechst 33 342 staining. The test cells were transferred to six-well plates at a density of 1 × 10^5 cells. […] Then, the MDA-MB-231 cells were stained with Hoechst 33 342 solution (10 μg/ml in the culture medium, Beyotime Institute of Biotechnology, Shanghai, China) at 37°C in a dark room for 20 min after incubation with the test compound 12–9. The cells were then washed twice with a serum-free medium to remove the leftover dye. The apoptotic cells stained by Hoechst 33 342 were imaged using CLSM (Carl-Zeiss LSM 710).

MDA-MB-231 cells [7] = test: Apoptosis analysis by annexin V-FITC/PI staining (flow cytometry); type: cell-based, human; conditions: 48 h; for apoptotic ratio: control 13.7%
Protocol: Apoptosis induced by TMPH compound 12–9 was evaluated by annexin V-FITC/PI staining. Briefly, MDA-MB-231 cells in the logarithmic growth phase were cultured in a six-well plate and incubated for 24 h at 37°C under a humid atmosphere containing 5% CO2. […] The incubated cells were washed twice with PBS, digested by trypsin, and centrifuged at 1,000 rpm for 5 min. The collected MDA-MB-231 cells were transferred to a 1.5-ml tube and resuspended in a solution of 200 μl of annexin V-FITC and 5 μl of PI. After incubation in a dark environment (covered with aluminum foil) for 15 min at room temperature, the collected cells were evaluated by flow cytometry (CyFlow®Cube 6, Sysmex). The apoptosis analysis data were shown as a pseudo color map and analyzed by FlowJo software.

SMILES | IC50 [1] | IC50 [2] | IC50 (mouse breast cancer 4T1) | SI, selectivity index [2] | IC50 (mouse fibroblast L929) | IC50 [3] | IC50 [4] | further results
Cc1nc(C)c(C(=O)NCCCCCCCCCCCCNC(=O)c2cnc3ccccc3c2)nc1C [12–5] | 1.36 ± 0.06 µM | 2.39 ± 0.12 µM | 3.5 ± 0.06 µM | 1.75 | 4.18 ± 0.05 µM | 11.4 ± 0.44 µM | 1.61 to 19.5 µM | 
Cc1nc(C)c(C(=O)NCCCCCCCCCCCCNC(=O)c2ccc3ncccc3c2)nc1C [12–6] | 2.04 ± 0.03 µM | 1.98 ± 0.15 µM | 4.18 ± 0.09 µM | 2.70 | 5.35 ± 0.17 µM | 7.03 ± 0.05 µM | 1.61 to 19.5 µM | 
Cc1nc(C)c(C(=O)NCCCCCCCCCCCCNC(=O)C=Cc2ccc(Cl)cc2)nc1C [12–10] | 2.09 ± 0.06 µM | 2.42 ± 0.06 µM | 1.63 ± 0.03 µM | 1.58 | 3.82 ± 0.07 µM | 12.37 ± 0.09 µM | 1.61 to 19.5 µM | 
COc1cc(C=CC(=O)NCCCCCCCCCCCCNC(=O)c2nc(C)c(C)nc2C)cc(OC)c1OC [12–12] | 2.21 ± 0.15 µM | 1.64 ± 0.12 µM | 2.69 ± 0.04 µM | 11.50 | 18.9 ± 0.44 µM | 12.2 ± 0.2 µM | 1.61 to 19.5 µM | 

More lines, main results first:

IC50 [1] | IC50 [2] | IC50 (mouse breast cancer 4T1) | SMILES | SI, selectivity index [2] | IC50 (mouse fibroblast L929) | IC50 [3] | IC50 [4] | further results
1.11 ± 0.15 µM | 0.84 ± 0.02 µM | 1.16 ± 0.18 µM | Cc1nc(C)c(C(=O)NCCCCCCCCCCCCNC(=O)c2ccc3cc[nH]c3c2)nc1C [12–9] | 3.76 | 3.16 ± 0.13 µM | 3.82 ± 0.24 µM | 1.61 to 19.5 µM | colony formation versus untreated control (MDA-MB-231 cells [5]): significantly fewer and smaller; apoptotic morphology, Hoechst 33 342 staining (MDA-MB-231 cells [6]): appeared shrunken and showed strong blue fluorescence; Q1, necrotic cells (annexin V−/PI+) (MDA-MB-231 cells [7]; 0.5 μM): 0.20; Q2, late apoptotic or necrotic cells (annexin V+/PI+) (MDA-MB-231 cells [7]; 0.5 μM): 15.2; Q3, early apoptotic cells (annexin V+/PI−) (MDA-MB-231 cells [7]; 0.5 μM): 8.76; Q4, living cells (annexin V−/PI−) (MDA-MB-231 cells [7]; 0.5 μM): 75.9; apoptotic ratio (MDA-MB-231 cells [7]; 0.5 μM): 23.96%; Q1, necrotic cells (annexin V−/PI+) (MDA-MB-231 cells [7]; 1.0 μM): 0.37; Q2, late apoptotic or necrotic cells (annexin V+/PI+) (MDA-MB-231 cells [7]; 1.0 μM): 24.8; Q3, early apoptotic cells (annexin V+/PI−) (MDA-MB-231 cells [7]; 1.0 μM): 7.84; Q4, living cells (annexin V−/PI−) (MDA-MB-231 cells [7]; 1.0 μM): 67.0; apoptotic ratio (MDA-MB-231 cells [7]; 1.0 μM): 32.64%; Q1, necrotic cells (annexin V−/PI+) (MDA-MB-231 cells [7]; 2.0 μM): 1.03; Q2, late apoptotic or necrotic cells (annexin V+/PI+) (MDA-MB-231 cells [7]; 2.0 μM): 35.3; Q3, early apoptotic cells (annexin V+/PI−) (MDA-MB-231 cells [7]; 2.0 μM): 11.6; Q4, living cells (annexin V−/PI−) (MDA-MB-231 cells [7]; 2.0 μM): 52.1; apoptotic ratio (MDA-MB-231 cells [7]; 2.0 μM): 46.9%
1.61 ± 0.08 µM | 5.01 ± 0.16 µM | 4.76 ± 0.45 µM | Cc1nc(C)c(C(=O)NCCCCCCCCCCCCNC(=O)c2ccc3ccccc3c2)nc1C [12–13] | 1.77 | 8.89 ± 0.12 µM | 10.7 ± 1.06 µM | 1.61 to 19.5 µM | 
